From publication PMC11078746 (Nature, 2024)
Values joined by “and” are separate entries in the source; they are usually repeats but may differ in a detail not shown here. Identical values can stand only once. Like-named read-outs stand apart in the source and are kept apart here.

Columns and labels:
HCT116 = experiment: CFA 10-14 day clonogenic assay; assay type: cell-based; conditions: Homo sapiens, HCT-116
HEC108 = experiment: 4 day proliferation assay (CellTiter-Glo); conditions: Homo sapiens, 96 h, read-out: 4 day assay GI50
CW2 = experiment: CFA 10-14 day clonogenic assay; assay type: cell-based; conditions: Homo sapiens, CW-2
SNUC5 [1] = experiment: 4 day proliferation assay (CellTiter-Glo); conditions: Homo sapiens, 96 h, read-out: 4 day assay GI50
CAL33 = experiment: 4 day proliferation assay (CellTiter-Glo); conditions: Homo sapiens, CAL-33, 96 h, read-out: 4 day assay GI50
SNU520 = experiment: 4 day proliferation assay (CellTiter-Glo); conditions: Homo sapiens, 96 h, read-out: 4 day assay GI50
KM12 = experiment: 4 day proliferation assay (CellTiter-Glo); conditions: Homo sapiens, KM12, 96 h, read-out: 4 day assay GI50
HEC265 = experiment: 4 day proliferation assay (CellTiter-Glo); conditions: Homo sapiens, 96 h, read-out: 4 day assay GI50
CYP3A4 = CYP3A4 (Homo sapiens, UniProt P08684); experiment: CYP3A4 TDI; assay type: in vitro ADME
SNUC5 [2] = experiment: CFA 10-14 day clonogenic assay; assay type: cell-based; conditions: Homo sapiens
[3] = HRO761 blood PK in SW48 tumour-bearing mice; assay type: in vivo, mouse; conditions: for concentration at 4 h / concentration at 8 h / concentration at 0.5 h / concentration at 1 h / concentration at 2 h / concentration at 24 h / AUC: female, whole blood; for concentration at 4 h / concentration at 8 h / concentration at 0.5 h / concentration at 1 h / concentration at 2 h / concentration at 24 h: Free HRO761 blood concentration
Method: All animal studies were conducted in accordance with ethics and procedures covered by permit BS-2275 and BS-1975 issued by the Kantonales Veterinäramt Basel-Stadt and in strict adherence to guidelines of the Eidgenössisches Tierschutzgesetz and the Eidgenössische Tierschutzverordnung, Switzerland. All animal studies were approved by the internal ethics committee. All animals had access to food and water ad libitum and were identified with transponders. They were housed in a specific-pathogen-free facility in IVC racks under a 12 h–12 h light–dark cycle. To establish cell-line-derived xenograft models, 6–7-week-old female athymic nude (Crl:NU(NCr)-Foxn1^nu) or SCID-BEIGE (CB17.Cg-PrkdcscidLystbg-J/Crl) mice from Charles River were engrafted subcutaneously with 5 million tumour cells in HBSS (H6648, Sigma-Aldrich). For SNU-407, Lovo, IM95, RL95.2, Ishikawa and IGROV-1, the cells were concentrated in 50% Matrigel (354234, Corning). Patient-derived xenografts were induced and expanded by transplantation as previously described. […] For the efficacy experiment, mice were randomized into groups (n = 5–6) for a mean tumour size of 100–150 mm^3. […] Blood samples were collected on day 7 and 91. […] Tumour responses are reported with the measures of tumour volumes from the treatment start. […] Animals were randomized (n = 3) and tumour samples were collected at 0, 1, 4, 8 and 24 h on the first day and then collected 4 h after the last treatment on day 3, 8, 10, 14 (including a 24 h timepoint), 17 and 21. Tumours were excised, weighed, either frozen in liquid nitrogen and cryogenic dry pulverized with the CryoPrep system (model CP-02, Covaris) or processed to FFPE after fixation. […] On day 12, blood samples were collected for PK analysis. On the last day (3 h after the last treatment), tumours were excised, weighed, frozen in liquid nitrogen and cryogenic dry pulverized for PD analysis.
PK parameters were determined by non-compartmental analysis. Intravenous bolus studies in mouse, rat and dog were performed at 1, 1 and 0.1 mg per kg respectively (Extended Data Table 1).

IM95 = experiment: 4 day proliferation assay (CellTiter-Glo); conditions: Homo sapiens, IM95, 96 h, read-out: 4 day assay GI50
NUGC3 = experiment: CFA 10-14 day clonogenic assay; assay type: cell-based; conditions: Homo sapiens, NUGC-3
HEC1B = experiment: 4 day proliferation assay (CellTiter-Glo); conditions: Homo sapiens, HEC-1B, 96 h, read-out: 4 day assay GI50
HEC1A = experiment: CFA 10-14 day clonogenic assay; assay type: cell-based; conditions: Homo sapiens, HEC-1-A
JHUEM1 = experiment: 4 day proliferation assay (CellTiter-Glo); conditions: Homo sapiens, 96 h, read-out: 4 day assay GI50

Sequence of CYP3A4 (P08684 whole entry, species assumed): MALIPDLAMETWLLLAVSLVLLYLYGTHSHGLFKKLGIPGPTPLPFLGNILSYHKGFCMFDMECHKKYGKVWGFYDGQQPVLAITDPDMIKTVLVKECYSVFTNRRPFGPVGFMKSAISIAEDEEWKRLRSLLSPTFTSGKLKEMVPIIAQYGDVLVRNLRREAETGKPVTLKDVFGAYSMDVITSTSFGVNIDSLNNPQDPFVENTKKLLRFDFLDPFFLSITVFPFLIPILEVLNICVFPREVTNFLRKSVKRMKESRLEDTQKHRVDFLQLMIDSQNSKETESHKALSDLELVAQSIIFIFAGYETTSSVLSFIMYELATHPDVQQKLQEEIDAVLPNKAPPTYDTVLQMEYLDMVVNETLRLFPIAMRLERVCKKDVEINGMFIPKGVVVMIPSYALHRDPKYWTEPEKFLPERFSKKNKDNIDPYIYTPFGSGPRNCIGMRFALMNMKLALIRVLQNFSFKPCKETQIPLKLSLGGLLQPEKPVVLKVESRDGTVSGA

Compound: CCc1c(N2CCN(C(=O)c3ncnc(C)c3O)CC2)c(=O)n2nc(C3=CCOCC3)nc2n1CC(=O)Nc1ccc(C(F)(F)F)cc1Cl [HRO761]
- GI50 (HCT116): 59 nM
- GI50 (HEC108): 1460 nM
- GI50 (CW2): 68 nM
- GI50 (SNUC5 [1]): 7240 nM
- GI50 (CAL33): ≥ 10000 nM
- GI50 (SNU520): ≥ 10000 nM
- GI50 (KM12): 1380 nM
- GI50 (HEC265): ≥ 10000 nM
- CYP3A4 TDI (CYP3A4): No TDI
- GI50 (SNUC5 [2]): 418 nM
- Free HRO761 blood concentration ([3]; 20mg/kg po, qd, 0.5 h post treatment, single mouse): 1.505 µM and 0.703 µM and 1.278 µM
- Free HRO761 blood concentration ([3]; 20mg/kg po, qd, 1 h, single mouse): 0.984 µM and 0.274 µM and 0.743 µM
- Free HRO761 blood concentration ([3]; 20mg/kg po, qd, 2 h, single mouse): 0.245 µM and 0.085 µM and 0.166 µM
- Free HRO761 blood concentration ([3]; 20mg/kg po, qd, 4 h, single mouse): 0.104 µM and 0.131 µM
- Free HRO761 blood concentration ([3]; 20mg/kg po, qd, 8 h, single mouse): 0.145 µM and 0.122 µM
- Free HRO761 blood concentration ([3]; 20mg/kg po, qd, 24 h, single mouse): 0.008 µM and 0.006 µM and 0.002 µM
- Free HRO761 blood concentration ([3]; 40mg/kg, 0.5 h, single mouse): 3.970 µM and 2.544 µM
- Free HRO761 blood concentration ([3]; 40mg/kg, 1 h, single mouse): 2.426 µM and 1.276 µM
- Free HRO761 blood concentration ([3]; 40mg/kg, 2 h, single mouse): 0.355 µM and 0.442 µM and 0.166 µM
- Free HRO761 blood concentration ([3]; 40mg/kg, 4 h, single mouse): 0.164 µM and 0.089 µM
- Free HRO761 blood concentration ([3]; 40mg/kg, 8 h, single mouse): 0.251 µM and 0.168 µM
- Free HRO761 blood concentration ([3]; 40mg/kg, 24 h, single mouse): 0.004 µM and 0.015 µM and 0.019 µM
- Free HRO761 blood concentration ([3]; 60mg/kg, 0.5 h, single mouse): 5.178 µM and 5.802 µM and 12.609 µM
- Free HRO761 blood concentration ([3]; 60mg/kg, 1 h, single mouse): 2.372 µM and 2.688 µM and 8.368 µM
- Free HRO761 blood concentration ([3]; 60mg/kg, 2 h, single mouse): 0.484 µM and 0.423 µM and 1.801 µM
- Free HRO761 blood concentration ([3]; 60mg/kg, 4 h, single mouse): 0.455 µM and 0.299 µM and 0.197 µM
- Free HRO761 blood concentration ([3]; 60mg/kg, 8 h, single mouse): 0.237 µM and 0.241 µM
- Free HRO761 blood concentration ([3]; 60mg/kg, 24 h, single mouse): 0.050 µM and 0.025 µM and 0.021 µM
- Free HRO761 blood concentration ([3]; 120mg/kg, 0.5 h, single mouse): 17.511 µM and 15.342 µM
- Free HRO761 blood concentration ([3]; 120mg/kg, 1 h, single mouse): 10.912 µM and 17.320 µM
- Free HRO761 blood concentration ([3]; 120mg/kg, 2 h, single mouse): 3.175 µM and 5.721 µM
- Free HRO761 blood concentration ([3]; 120mg/kg, 4 h, single mouse): 0.693 µM and 0.631 µM
- Free HRO761 blood concentration ([3]; 120mg/kg, 8 h, single mouse): 0.515 µM and 0.718 µM
- Free HRO761 blood concentration ([3]; 120mg/kg, 24 h, single mouse): 0.210 µM and 0.035 µM and 0.095 µM
- concentration at 4 h ([3]; mouse, oral, 20 mg/kg, 20mg/kg po, qd, 4 h, single mouse): 176 nM
- concentration at 8 h ([3]; mouse, oral, 20 mg/kg, 20mg/kg po, qd, 8 h, single mouse): 154 nM
- concentration at 0.5 h ([3]; mouse, oral, 20 mg/kg, Mean, 20mg/kg po, qd, 0.5 h): 1160 nM
- concentration at 1 h ([3]; mouse, oral, 20 mg/kg, Mean, 20mg/kg po, qd, 1 h): 670 nM
- concentration at 2 h ([3]; mouse, oral, 20 mg/kg, Mean, 20mg/kg po, qd, 2 h): 170 nM
- concentration at 4 h ([3]; mouse, oral, 20 mg/kg, Mean, 20mg/kg po, qd, 4 h): 140 nM
- concentration at 8 h ([3]; mouse, oral, 20 mg/kg, Mean, 20mg/kg po, qd, 8 h): 140 nM
- concentration at 24 h ([3]; mouse, oral, 20 mg/kg, Mean, 20mg/kg po, qd, 24 h): 5.15 nM
- concentration at 0.5 h ([3]; mouse, oral, 40 mg/kg, Mean, 0.5 h): 3140 nM
- concentration at 1 h ([3]; mouse, oral, 40 mg/kg, Mean, 1 h): 1860 nM
- concentration at 2 h ([3]; mouse, oral, 40 mg/kg, Mean, 2 h): 320 nM
- concentration at 4 h ([3]; mouse, oral, 40 mg/kg, Mean, 4 h): 130 nM
- concentration at 8 h ([3]; mouse, oral, 40 mg/kg, Mean, 8 h): 200 nM
- concentration at 24 h ([3]; mouse, oral, 40 mg/kg, Mean, 24 h): 12.9 nM
- concentration at 0.5 h ([3]; mouse, oral, 40 mg/kg, 0.5 h, single mouse): 2910 nM
- concentration at 1 h ([3]; mouse, oral, 40 mg/kg, 1 h, single mouse): 1890 nM
- concentration at 4 h ([3]; mouse, oral, 40 mg/kg, 4 h, single mouse): 124 nM
- concentration at 8 h ([3]; mouse, oral, 40 mg/kg, 8 h, single mouse): 178 nM
- concentration at 0.5 h ([3]; mouse, oral, 60 mg/kg, Mean, 0.5 h): 7860 nM
- concentration at 1 h ([3]; mouse, oral, 60 mg/kg, Mean, 1 h): 4480 nM
- concentration at 2 h ([3]; mouse, oral, 60 mg/kg, Mean, 2 h): 900 nM
- concentration at 4 h ([3]; mouse, oral, 60 mg/kg, Mean, 4 h): 320 nM
- concentration at 8 h ([3]; mouse, oral, 60 mg/kg, Mean, 8 h): 250 nM
- concentration at 24 h ([3]; mouse, oral, 60 mg/kg, Mean, 24 h): 32.2 nM
- concentration at 8 h ([3]; mouse, oral, 60 mg/kg, 8 h, single mouse): 276 nM
- concentration at 0.5 h ([3]; mouse, oral, 120 mg/kg, Mean, 0.5 h): 15900 nM
- concentration at 1 h ([3]; mouse, oral, 120 mg/kg, Mean, 1 h): 13900 nM
- concentration at 2 h ([3]; mouse, oral, 120 mg/kg, Mean, 2 h): 4010 nM
- concentration at 4 h ([3]; mouse, oral, 120 mg/kg, Mean, 4 h): 610 nM
- concentration at 8 h ([3]; mouse, oral, 120 mg/kg, Mean, 8 h): 620 nM
- concentration at 24 h ([3]; mouse, oral, 120 mg/kg, Mean, 24 h): 110 nM
- concentration at 0.5 h ([3]; mouse, oral, 120 mg/kg, 0.5 h, single mouse): 14800 nM
- concentration at 1 h ([3]; mouse, oral, 120 mg/kg, 1 h, single mouse): 13500 nM
- concentration at 2 h ([3]; mouse, oral, 120 mg/kg, 2 h, single mouse): 3120 nM
- concentration at 4 h ([3]; mouse, oral, 120 mg/kg, 4 h, single mouse): 496 nM
- concentration at 8 h ([3]; mouse, oral, 120 mg/kg, 8 h, single mouse): 620 nM
- AUC ([3]; mouse, po, 10 mg/kg, read-out: AUCb, u above GI90, u): 0.09 µM·h
- AUC ([3]; mouse, po, 20 mg/kg, read-out: AUCb, u above GI90, u): 0.52 µM·h
- AUC ([3]; mouse, po, 30 mg/kg, read-out: AUCb, u above GI90, u): 2.14 µM·h
- AUC ([3]; mouse, po, 40 mg/kg, read-out: AUCb, u above GI90, u): 4 µM·h
- AUC ([3]; mouse, po, 60 mg/kg, read-out: AUCb, u above GI90, u): 6.08 µM·h
- AUC ([3]; mouse, po, 120 mg/kg, read-out: AUCb, u above GI90, u): 27 µM·h
- AUC ([3]; oral, mouse at 40 mg/kg qd, read-out: Efficacious daily AUC): 31 µM·h
- GI50 (IM95): 2010 nM
- GI50 (NUGC3): ≥ 10000 nM
- GI50 (HEC1B): ≥ 10000 nM
- GI50 (HEC1A): ≥ 10000 nM
- GI50 (JHUEM1): 946 nM
